Experiments:
Water solubility = format: physicochemical
[1] = test system: CDK4/6-resistant breast cancer cells; assay: Cell number dose-response (discussion summary); format: cell-based; details: addition of INX-315 to CDK4/6-resistant cells
Experimental: An exception to this is MCF7PDRCl5-1 cells which were first cultured for 5 days without palbociclib then plated as described. MCF7PDRCl5-1 cells were treated with either a dose curve of the indicated CDK4/6i or a dose curve of INX-315 + 1 µmol/L of the indicated CDK4/6i. Cell viability was determined using the CellTiter-Glo assay (Promega, G9241) following manufacturer's instructions. Plates were processed on either BioTek Synergy2 multi-mode (Agilent) or ClarioSTAR (BMG Labtech) plate readers. T47D and MCF7 cells were seeded into […] plates using BioTek 406 (Aglient) and treated with a ten-point dose concentration from 10 µmol/L to 0.3 nmol/L of INX-315 for 2× doubling times. Plates were fixed with 4% PFA and stained with Rhodamine-Phalloidin (Bio-Trend, 00027) and DAPI (5 mg/mL, Invitrogen, catalog no. D1306). Plates were imaged using CellInsight CX7 LZR and DAPI-positive cells were counted using Thermo Fisher Scientific HCS Studio Cell Analysis Software.

CDK9/cyclin T1 = target: T1, CDK9/cyclin T1 (Homo sapiens, UniProt P50750); assay: NanoBRET live cell target engagement; format: binding
T1 construct: purchased Carna 04-110
T1 sequence (P50750 whole entry): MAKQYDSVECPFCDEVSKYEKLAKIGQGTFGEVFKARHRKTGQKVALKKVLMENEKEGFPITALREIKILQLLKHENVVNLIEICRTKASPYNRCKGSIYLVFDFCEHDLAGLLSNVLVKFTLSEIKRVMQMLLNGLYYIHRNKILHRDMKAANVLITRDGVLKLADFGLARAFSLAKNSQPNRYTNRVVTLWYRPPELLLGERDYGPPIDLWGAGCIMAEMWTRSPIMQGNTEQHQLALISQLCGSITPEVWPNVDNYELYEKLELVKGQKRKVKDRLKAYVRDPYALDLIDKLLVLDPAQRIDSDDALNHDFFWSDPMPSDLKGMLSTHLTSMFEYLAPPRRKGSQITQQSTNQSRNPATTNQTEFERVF
T1 sequence (O60563 whole entry partner): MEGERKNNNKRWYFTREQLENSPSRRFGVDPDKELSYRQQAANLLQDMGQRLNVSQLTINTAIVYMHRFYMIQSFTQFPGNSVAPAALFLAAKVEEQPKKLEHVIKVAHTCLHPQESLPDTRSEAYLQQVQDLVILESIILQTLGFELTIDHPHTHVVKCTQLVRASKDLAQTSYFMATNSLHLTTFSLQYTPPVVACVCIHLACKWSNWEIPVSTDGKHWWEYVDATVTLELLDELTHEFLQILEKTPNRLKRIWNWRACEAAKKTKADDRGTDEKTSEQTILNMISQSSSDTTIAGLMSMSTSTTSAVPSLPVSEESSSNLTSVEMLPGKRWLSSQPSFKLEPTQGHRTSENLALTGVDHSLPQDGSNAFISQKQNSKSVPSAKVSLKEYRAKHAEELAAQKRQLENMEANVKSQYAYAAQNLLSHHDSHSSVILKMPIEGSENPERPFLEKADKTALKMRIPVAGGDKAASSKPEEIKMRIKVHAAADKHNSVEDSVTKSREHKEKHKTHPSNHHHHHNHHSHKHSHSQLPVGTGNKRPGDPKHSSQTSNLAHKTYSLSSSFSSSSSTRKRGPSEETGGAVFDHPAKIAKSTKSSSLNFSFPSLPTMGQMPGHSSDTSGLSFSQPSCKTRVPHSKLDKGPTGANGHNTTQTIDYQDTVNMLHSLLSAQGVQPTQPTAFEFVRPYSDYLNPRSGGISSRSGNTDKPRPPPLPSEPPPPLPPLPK
Experimental: (§1) Reaction Bio (Malvern, PA) conducted NanoBRET assays utilizing Promega NanoLuc technology with two replicates per experiment. The CDK2/E1 and CDK1/B1 values are the average of two separate experiments.
(§2) HEK293 cells were transfected using Opti-MEM without serum containing ratios of 9.0 µg/mL of Transfection Carrier DNA, 1.0 µg/mL of NanoLuc fusion vector DNA and 1 mL of Opti-MEM without phenol red. 30 µL of FuGENE HD transfection reagent was added to each milliliter of DNA mixture to form lipid:DNA complex. After incubation for 20 minutes at room temperature, 1 part lipid/DNA complex was added to 20 parts HEK293 cells in suspension. Cells were then plated and incubated overnight before being trypsinized and resuspended at 2 × 10^5 cells/mL. NanoBRET tracer reagent was added to cells at a ratio of 1 part tracer to 20 parts cell suspension. Cells were added to a 384-well plate and incubated for 1 hour. Plates were removed and incubated at room temperature for 15 minutes to equilibrate before 3x complete substrate plus inhibitor was added. After 2–3 minutes of incubation at room temperature, donor and acceptor wavelengths (460 nm and 600 nm, respectively) were measured using an Envision 2104 plate reader.

CDK2/cyclin A1 = target: T2, CDK2/cyclin A1 (Homo sapiens, UniProt P24941); assay: NanoBRET live cell target engagement; format: binding
T2 construct: host or cells: HEK293
Experimental: as §1, §2

CDK1/cyclin B1 = target: T3, CDK1/cyclin B1 (Homo sapiens, UniProt P06493); assay: NanoBRET live cell target engagement; format: binding
T3 construct: purchased Millipore 14-450M
T3 sequence (P06493 whole entry): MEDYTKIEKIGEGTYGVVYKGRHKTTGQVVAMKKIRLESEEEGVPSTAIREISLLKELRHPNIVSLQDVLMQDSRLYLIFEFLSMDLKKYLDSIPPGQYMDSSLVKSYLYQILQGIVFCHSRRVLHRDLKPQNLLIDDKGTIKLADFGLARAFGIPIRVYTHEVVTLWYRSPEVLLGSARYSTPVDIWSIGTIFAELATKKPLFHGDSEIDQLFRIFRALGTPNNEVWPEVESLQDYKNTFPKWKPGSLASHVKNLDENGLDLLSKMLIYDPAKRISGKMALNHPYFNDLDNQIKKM
T3 sequence (P14635 whole entry partner): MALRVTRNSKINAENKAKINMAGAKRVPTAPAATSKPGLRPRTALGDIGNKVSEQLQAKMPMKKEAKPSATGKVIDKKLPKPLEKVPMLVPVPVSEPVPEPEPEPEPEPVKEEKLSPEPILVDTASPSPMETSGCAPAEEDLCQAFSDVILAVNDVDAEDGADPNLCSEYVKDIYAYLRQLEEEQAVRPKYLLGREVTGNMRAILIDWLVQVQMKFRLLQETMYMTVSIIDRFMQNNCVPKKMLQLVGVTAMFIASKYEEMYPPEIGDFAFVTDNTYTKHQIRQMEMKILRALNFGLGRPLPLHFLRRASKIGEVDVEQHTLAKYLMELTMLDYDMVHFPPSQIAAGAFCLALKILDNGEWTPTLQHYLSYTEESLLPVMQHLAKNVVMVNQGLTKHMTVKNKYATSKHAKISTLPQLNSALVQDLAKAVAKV
Experimental: as §1, §2

CDK2/cyclin E1 = target: T4, CDK2/cyclin E1 (Homo sapiens, UniProt P24941); assay: NanoBRET live cell target engagement; format: binding
T4 construct: purchased Millipore 14-475
Experimental: as §1, §2

ALK T1151_L1152insT = target: T5, ALK T1151_L1152insT (Homo sapiens, UniProt Q9UM73, INS1151T); assay: SelectScreen LanthaScreen Binding; details: INX-0315 at 100nM
T5 construct: purchased Thermo Fisher Scientific SelectScreen (plus Nanosyn / Reaction Biology for CDK/cyclin lines)
Procedure, shortened: (§3)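 Under the service's preestablished protocols, INX-315 was tested initially at 100 nmol/L with 1% DMSO present, and subsequently across ten concentrations from 1 µmol/L to 0.0495 nmol/L.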

AMPK (A2/B2/G2) = target: T6, AMPK (A2/B2/G2) (Homo sapiens, UniProt P54646); assay: SelectScreen LanthaScreen Binding; details: INX-0315 at 100nM
T6 construct: purchased Thermo Fisher Scientific SelectScreen (plus Nanosyn / Reaction Biology for CDK/cyclin lines)
Procedure, shortened: as §3

LRRK2 G2019S = target: T7, LRRK2 G2019S (Homo sapiens, UniProt Q5S007, G2019S); assay: SelectScreen Adapta; format: biochemical; details: INX-0315 at 100nM
T7 construct: purchased Thermo Fisher Scientific SelectScreen (plus Nanosyn / Reaction Biology for CDK/cyclin lines)
Excerpt: (§4) INX-315 was first evaluated in the SelectScreen Biochemical Kinase Profiling at Thermo Fisher Scientific (Madison, WI). The primary screen consisted of INX-315 dosed at a single concentration of 100 nmol/L in 1% DMSO across each platform within the SelectScreen array of assays, LanthaScreen Eu Kinase Binding Assay; AdaptaScreen; and Z'LyteScreen using preestablished conditions at Thermo Fisher Scientific as shown in Supplementary Table S2. […] The follow-up screen consisted of 10-point dose–response curves for INX-315 from 1 µmol/L to 0.0495 nmol/L.

IRAK1 = target: T8, IRAK1 (Homo sapiens, UniProt P51617); assay: SelectScreen Adapta; format: biochemical; details: INX-0315 at 100nM
T8 construct: purchased Thermo Fisher Scientific SelectScreen (plus Nanosyn / Reaction Biology for CDK/cyclin lines)
T8 sequence (P51617 whole entry): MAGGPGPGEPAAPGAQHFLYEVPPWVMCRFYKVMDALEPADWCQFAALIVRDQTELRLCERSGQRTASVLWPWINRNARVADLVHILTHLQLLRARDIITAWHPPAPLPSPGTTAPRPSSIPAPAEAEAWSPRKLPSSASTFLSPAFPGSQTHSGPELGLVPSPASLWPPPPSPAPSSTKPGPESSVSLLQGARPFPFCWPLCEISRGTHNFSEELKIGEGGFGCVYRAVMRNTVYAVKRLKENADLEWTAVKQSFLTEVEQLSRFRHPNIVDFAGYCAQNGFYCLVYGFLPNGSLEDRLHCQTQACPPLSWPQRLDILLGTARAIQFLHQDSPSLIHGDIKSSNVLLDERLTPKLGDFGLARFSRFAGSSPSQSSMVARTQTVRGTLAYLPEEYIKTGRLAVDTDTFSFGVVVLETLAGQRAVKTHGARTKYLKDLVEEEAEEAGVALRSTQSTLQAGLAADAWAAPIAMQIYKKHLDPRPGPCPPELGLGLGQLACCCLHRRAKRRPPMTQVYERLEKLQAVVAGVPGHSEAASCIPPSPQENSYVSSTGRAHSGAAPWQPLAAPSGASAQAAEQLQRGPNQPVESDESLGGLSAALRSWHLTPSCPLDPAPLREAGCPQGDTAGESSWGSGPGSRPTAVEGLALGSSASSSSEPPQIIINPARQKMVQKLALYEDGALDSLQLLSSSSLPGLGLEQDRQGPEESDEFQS
Excerpt: as §4

[2] = target: T9, PIK3CB/PIK3R1 (p110 beta/p85 alpha) (Homo sapiens, UniProt P42338); assay: SelectScreen Adapta; format: biochemical; details: INX-0315 at 100nM
T9 construct: purchased Thermo Fisher Scientific SelectScreen (plus Nanosyn / Reaction Biology for CDK/cyclin lines)
Excerpt: as §4

PIK3C2G (PI3K-C2 gamma) = target: T10, PIK3C2G (PI3K-C2 gamma) (Homo sapiens, UniProt O75747); assay: SelectScreen Adapta; format: biochemical; details: INX-0315 at 100nM
T10 construct: purchased Thermo Fisher Scientific SelectScreen (plus Nanosyn / Reaction Biology for CDK/cyclin lines)
Excerpt: as §4

[3] = target: T11, PIK3CA/PIK3R1 (p110 alpha/p85 alpha) (Homo sapiens, UniProt P42336); assay: SelectScreen Adapta; format: biochemical; details: INX-0315 at 100nM
T11 construct: purchased Thermo Fisher Scientific SelectScreen (plus Nanosyn / Reaction Biology for CDK/cyclin lines)
Excerpt: as §4

PIP5K1C = target: T12, PIP5K1C (Homo sapiens, UniProt O60331); assay: SelectScreen Adapta; format: biochemical; details: INX-0315 at 100nM
T12 construct: purchased Thermo Fisher Scientific SelectScreen (plus Nanosyn / Reaction Biology for CDK/cyclin lines)
T12 sequence (O60331 whole entry): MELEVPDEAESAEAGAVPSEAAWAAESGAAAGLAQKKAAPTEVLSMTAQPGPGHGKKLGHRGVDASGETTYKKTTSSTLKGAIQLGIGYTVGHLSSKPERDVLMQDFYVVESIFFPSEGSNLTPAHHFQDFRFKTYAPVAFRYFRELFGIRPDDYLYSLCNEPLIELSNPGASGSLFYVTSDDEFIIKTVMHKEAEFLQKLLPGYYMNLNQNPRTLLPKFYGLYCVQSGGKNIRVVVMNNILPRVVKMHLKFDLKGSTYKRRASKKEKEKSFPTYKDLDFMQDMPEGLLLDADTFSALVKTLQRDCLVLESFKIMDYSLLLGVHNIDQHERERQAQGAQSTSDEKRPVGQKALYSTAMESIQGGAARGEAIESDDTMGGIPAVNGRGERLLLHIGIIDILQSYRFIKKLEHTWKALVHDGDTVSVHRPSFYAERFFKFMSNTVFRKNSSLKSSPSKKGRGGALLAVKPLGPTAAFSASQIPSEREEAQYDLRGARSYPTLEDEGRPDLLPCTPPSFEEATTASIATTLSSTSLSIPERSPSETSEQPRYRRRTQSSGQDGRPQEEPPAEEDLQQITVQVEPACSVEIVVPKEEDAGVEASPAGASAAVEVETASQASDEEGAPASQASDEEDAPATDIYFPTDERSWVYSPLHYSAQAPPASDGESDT
Excerpt: as §4

[4] = target: T13, PIK3CD/PIK3R1 (p110 delta/p85 alpha) (Homo sapiens, UniProt O00329); assay: SelectScreen Adapta; format: biochemical; details: INX-0315 at 100nM
T13 construct: purchased Thermo Fisher Scientific SelectScreen (plus Nanosyn / Reaction Biology for CDK/cyclin lines)
Excerpt: as §4

[5] = target: T14, PIK3CB/PIK3R2 (p110 beta/p85 beta) (Homo sapiens, UniProt P42338); assay: SelectScreen Adapta; format: biochemical; details: INX-0315 at 100nM
T14 construct: purchased Thermo Fisher Scientific SelectScreen (plus Nanosyn / Reaction Biology for CDK/cyclin lines)
Excerpt: as §4

LRRK2 FL = target: T15, LRRK2 FL (Homo sapiens, UniProt Q5S007); assay: SelectScreen Adapta; format: biochemical; details: INX-0315 at 100nM
T15 construct: purchased Thermo Fisher Scientific SelectScreen (plus Nanosyn / Reaction Biology for CDK/cyclin lines)
Excerpt: as §4

PIK3C2B (PI3K-C2 beta) = target: T16, PIK3C2B (PI3K-C2 beta) (Homo sapiens, UniProt O00750); assay: SelectScreen Adapta; format: biochemical; details: INX-0315 at 100nM
T16 construct: purchased Thermo Fisher Scientific SelectScreen (plus Nanosyn / Reaction Biology for CDK/cyclin lines)
Excerpt: as §4

SPHK1 = target: T17, SPHK1 (Homo sapiens, UniProt Q9NYA1); assay: SelectScreen Adapta; format: biochemical; details: INX-0315 at 100nM
T17 construct: purchased Thermo Fisher Scientific SelectScreen (plus Nanosyn / Reaction Biology for CDK/cyclin lines)
T17 sequence (Q9NYA1 whole entry): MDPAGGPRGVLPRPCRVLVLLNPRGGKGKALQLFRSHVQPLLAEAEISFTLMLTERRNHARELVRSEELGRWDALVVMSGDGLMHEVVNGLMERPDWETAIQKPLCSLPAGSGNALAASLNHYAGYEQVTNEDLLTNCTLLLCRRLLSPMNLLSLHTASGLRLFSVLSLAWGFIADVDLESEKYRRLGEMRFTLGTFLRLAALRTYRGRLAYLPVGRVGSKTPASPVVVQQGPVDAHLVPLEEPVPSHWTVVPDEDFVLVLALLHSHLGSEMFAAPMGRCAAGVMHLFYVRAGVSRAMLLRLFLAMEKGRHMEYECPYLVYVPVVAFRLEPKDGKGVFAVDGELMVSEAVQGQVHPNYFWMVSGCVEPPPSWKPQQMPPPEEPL
Excerpt: as §4

PIP5K1B = target: T18, PIP5K1B (Homo sapiens, UniProt O14986); assay: SelectScreen Adapta; format: biochemical; details: INX-0315 at 100nM
T18 construct: purchased Thermo Fisher Scientific SelectScreen (plus Nanosyn / Reaction Biology for CDK/cyclin lines)
T18 sequence (O14986 whole entry): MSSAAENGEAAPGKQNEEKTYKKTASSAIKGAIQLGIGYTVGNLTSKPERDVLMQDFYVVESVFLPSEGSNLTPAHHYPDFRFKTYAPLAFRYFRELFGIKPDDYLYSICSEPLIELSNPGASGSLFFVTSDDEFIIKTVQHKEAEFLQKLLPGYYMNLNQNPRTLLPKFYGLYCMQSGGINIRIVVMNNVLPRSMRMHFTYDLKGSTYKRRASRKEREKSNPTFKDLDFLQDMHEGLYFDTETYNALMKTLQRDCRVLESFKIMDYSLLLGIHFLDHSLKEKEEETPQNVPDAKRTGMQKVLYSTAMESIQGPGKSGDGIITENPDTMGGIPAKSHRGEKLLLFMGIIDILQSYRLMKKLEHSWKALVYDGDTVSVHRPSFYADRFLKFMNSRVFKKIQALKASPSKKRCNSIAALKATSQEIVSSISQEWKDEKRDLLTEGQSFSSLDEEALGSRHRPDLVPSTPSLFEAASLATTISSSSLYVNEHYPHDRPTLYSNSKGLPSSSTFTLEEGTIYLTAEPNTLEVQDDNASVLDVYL
Excerpt: as §4

PI4K2A (PI4K2 alpha) = target: T19, PI4K2A (PI4K2 alpha) (Homo sapiens, UniProt Q9BTU6); assay: SelectScreen Adapta; format: biochemical; details: INX-0315 at 100nM
T19 construct: purchased Thermo Fisher Scientific SelectScreen (plus Nanosyn / Reaction Biology for CDK/cyclin lines)
Excerpt: as §4

CHUK (IKK alpha) = target: T20, CHUK (IKK alpha) (Homo sapiens, UniProt O15111); assay: SelectScreen Adapta; format: biochemical; details: INX-0315 at 100nM
T20 construct: purchased Thermo Fisher Scientific SelectScreen (plus Nanosyn / Reaction Biology for CDK/cyclin lines)
T20 sequence (O15111 whole entry): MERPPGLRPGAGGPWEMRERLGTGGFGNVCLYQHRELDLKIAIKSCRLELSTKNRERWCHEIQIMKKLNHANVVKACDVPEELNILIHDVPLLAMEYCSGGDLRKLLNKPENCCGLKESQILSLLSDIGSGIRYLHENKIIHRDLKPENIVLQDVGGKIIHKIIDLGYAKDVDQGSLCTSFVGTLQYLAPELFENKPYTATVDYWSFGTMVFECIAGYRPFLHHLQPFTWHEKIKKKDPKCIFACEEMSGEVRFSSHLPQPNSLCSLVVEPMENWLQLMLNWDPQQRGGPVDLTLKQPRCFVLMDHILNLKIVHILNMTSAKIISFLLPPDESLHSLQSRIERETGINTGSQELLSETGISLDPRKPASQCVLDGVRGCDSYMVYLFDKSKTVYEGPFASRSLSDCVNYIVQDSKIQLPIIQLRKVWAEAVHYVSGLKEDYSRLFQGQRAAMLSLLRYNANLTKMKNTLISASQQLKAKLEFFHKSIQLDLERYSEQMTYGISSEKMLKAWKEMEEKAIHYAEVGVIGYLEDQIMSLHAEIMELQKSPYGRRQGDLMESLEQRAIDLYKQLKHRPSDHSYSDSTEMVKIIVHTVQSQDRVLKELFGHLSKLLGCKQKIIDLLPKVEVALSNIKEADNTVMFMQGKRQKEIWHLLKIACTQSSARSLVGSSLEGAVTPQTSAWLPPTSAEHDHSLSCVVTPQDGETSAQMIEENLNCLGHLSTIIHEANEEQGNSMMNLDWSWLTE
Excerpt: as §4

[6] = NanoBRET intracellular IC50 ratio

In the case of `NS(=O)(=O)c1ccc(Nc2ncc3cc4n(c3n2)C2(CCCCC2)C(=O)NN4)cc1` [INX-315], the solubility (Water solubility) is reported as under 50 µg/mL, the IC50 [1] is reported as under 25 nM and the “Fold vs. CDK2/E1, CDK9/cyclin T1” value (CDK9/cyclin T1; [6]) is reported as 1283. The IC50 (CDK9/cyclin T1; NanoBRET, HEK293 cells, value (SD), read-out: intracellular IC50 (nmol/L) CDK9/cyclin T1) was 2950 nmol/L, the “Fold vs. CDK2/E1, CDK2/cyclin A1” value (CDK2/cyclin A1; [6]) was 31 and the IC50 (CDK2/cyclin A1; NanoBRET, HEK293 cells, value (SD), read-out: intracellular IC50 (nmol/L) CDK2/cyclin A1) was 71 nmol/L. The “Fold vs. CDK2/E1, CDK1/cyclin B1” value (CDK1/cyclin B1; [6]) was 163, the IC50 (CDK1/cyclin B1; NanoBRET, HEK293 cells, value (SD), read-out: intracellular IC50 (nmol/L) CDK1/cyclin B1) was 374 nmol/L and the “Fold vs. CDK2/E1, CDK2/cyclin E1” value (CDK2/cyclin E1; [6]) was 1. The “increase of intracellular IC50 over the biochemical IC50, CDK2/cyclin E1” value (CDK2/cyclin E1; NanoBRET vs biochemical) was 4 fold, the IC50 (CDK2/cyclin E1; NanoBRET, HEK293 cells, value (SD), read-out: intracellular IC50 (nmol/L) CDK2/cyclin E1) was 2.3 nmol/L and the inhibition at 0.1 µM (ALK T1151_L1152insT) was 6%. The inhibition at 0.1 µM (AMPK (A2/B2/G2)) was 11%, the inhibition at 0.1 µM (LRRK2 G2019S) was 34% and the inhibition at 0.1 µM (IRAK1) was 6%. For the same compound, the inhibition at 0.1 µM [2] was -17%, the inhibition at 0.1 µM (PIK3C2G (PI3K-C2 gamma)) was 6% and the inhibition at 0.1 µM [3] was 11%. The inhibition at 0.1 µM (PIP5K1C) was 4%, the inhibition at 0.1 µM [4] was -10% and the inhibition at 0.1 µM [5] was -14%. The inhibition at 0.1 µM (LRRK2 FL) was 37%, the inhibition at 0.1 µM (PIK3C2B (PI3K-C2 beta)) was -14% and the inhibition at 0.1 µM (SPHK1) was -15%. For the same compound, the inhibition at 0.1 µM (PIP5K1B) was 38%, the inhibition at 0.1 µM (PI4K2A (PI4K2 alpha)) was 0% and the inhibition at 0.1 µM (CHUK (IKK alpha)) was -7%.

— paper PMC10905675, “INX-315, a Selective CDK2 Inhibitor, Induces Cell Cycle Arrest and Senescence in Solid Tumors” (Cancer Discovery, 2023)
